Data on 33 molecules can be found in patent publication US5712273A, “Amino acid derivatives, processes for the manufacture thereof and pharmaceutical compositions (II) containing these compounds” (Boehringer Ingelheim GmbH, priority 1994, dated 1998).

The structures appear in SMILES notation. Like-named read-outs stand apart in the source and are kept apart here.

One test deals with T1, human NK2 receptor (Homo sapiens, UniProt P21452).
T1 construct: expressed in transfected cells; host or cells: A20 cells
T1 sequence (P21452 1-398): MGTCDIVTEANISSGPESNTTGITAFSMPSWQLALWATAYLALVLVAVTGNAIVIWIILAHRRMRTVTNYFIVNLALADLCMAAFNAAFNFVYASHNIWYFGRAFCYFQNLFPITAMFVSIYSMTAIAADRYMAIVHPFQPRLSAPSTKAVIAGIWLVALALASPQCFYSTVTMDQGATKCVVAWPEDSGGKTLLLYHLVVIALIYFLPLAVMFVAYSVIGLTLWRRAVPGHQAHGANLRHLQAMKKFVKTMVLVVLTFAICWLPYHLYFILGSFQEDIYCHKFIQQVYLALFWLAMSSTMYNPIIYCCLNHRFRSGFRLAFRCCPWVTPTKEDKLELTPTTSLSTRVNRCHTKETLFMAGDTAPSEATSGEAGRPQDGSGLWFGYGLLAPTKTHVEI
Kind of test: NK2-binding test: displacement of 125I-labelled ligand on A20 cells which represent the human NK2 receptor. The note with it: transfixed A20 cells (human NK2 receptor); displacement of 125I-BN-neusolinine A. How it is done:
(§1) The receptor affinity at the NK1 -receptor (substance P-receptor) was determined with cloned NK1 -receptors on human lymphoblastoma cells (IM-9), whereby the displacement of ^125 I-labelled substance P is measured. The NK2 -binding test is carried out on transfixed A20 cells which represent the human NK2 receptor. The displacement of ^125 I-BN-neusolinine A is determined.

Test [1] addresses T2, NK1-receptor (substance P-receptor) (Homo sapiens, UniProt P25103).
T2 construct: cloned NK1 -receptors on human lymphoblastoma cells (IM-9); endogenous in cells; host or cells: IM-9 human lymphoblastoma cells
Kind of test: NK1-receptor (substance P-receptor) affinity: displacement of 125I-labelled substance P on IM-9 cells. Format: binding. Here is the method: as §1

Where [2] appears, read: cloned NK1-receptors on human lymphoblastoma cells (IM-9), displacement of 125I-labelled substance P, read-out: NK1 IC50.

T2 sequence (P25103 whole entry): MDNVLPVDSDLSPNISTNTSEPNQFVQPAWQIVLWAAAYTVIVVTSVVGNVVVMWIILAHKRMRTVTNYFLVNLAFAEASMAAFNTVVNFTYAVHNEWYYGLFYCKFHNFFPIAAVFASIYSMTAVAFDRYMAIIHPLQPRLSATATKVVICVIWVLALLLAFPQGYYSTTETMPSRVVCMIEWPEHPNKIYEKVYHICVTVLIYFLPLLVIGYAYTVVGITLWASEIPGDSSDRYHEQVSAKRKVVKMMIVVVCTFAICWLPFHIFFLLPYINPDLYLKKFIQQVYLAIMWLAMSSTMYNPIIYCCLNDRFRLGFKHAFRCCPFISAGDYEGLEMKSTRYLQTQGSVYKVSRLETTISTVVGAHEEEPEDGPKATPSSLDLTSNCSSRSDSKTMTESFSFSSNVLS

For the molecule `COc1ccccc1N1CCN(C(=O)[C@H](Cc2ccc3ccccc3c2)NC(=O)[C@@H]2C[C@@H](O)CN2C(=O)C2C(=O)C3(C)CCC2C3(C)C)CC1` (single isomer, unassigned) [Compound 1], the results for the IC50 (on human NK2 receptor; in test [1] (setting [2])) were 21 nM and 3.1 nM, respectively. The matching figures for `Cc1ccccc1CN(C)C(=O)[C@H](Cc1c[nH]c2ccccc12)NC(=O)[C@@H]1C[C@@H](O)CN1C(=O)C1C(=O)C2(C)CCC1C2(C)C` (single isomer, unassigned) [Compound 2]: 21 nM and 3.6 nM.

Consider `Cc1ccccc1N1CCN(C(=O)[C@H](Cc2ccc3ccccc3c2)NC(=O)[C@@H]2C[C@@H](O)CN2C(=O)C2C(=O)C3(C)CCC2C3(C)C)CC1` (stereo partly drawn) [Compound 3], for which the IC50 on human NK2 receptor came to 65 nM; in test [1] (setting [2]) it was 3 nM.

Turning to `CC(C)c1ccccc1N1CCN(C(=O)[C@H](Cc2ccc3ccccc3c2)NC(=O)[C@@H]2C[C@@H](O)CN2C(=O)C2C(=O)C3(C)CCC2C3(C)C)CC1` (stereo partly drawn) [Compound 4], the IC50 on human NK2 receptor amounted to 110 nM; in test [1] (setting [2]), 5 nM.

Turning to `COc1ccc(N2CCN(C(=O)[C@H](Cc3ccc4ccccc4c3)NC(=O)[C@@H]3C[C@@H](O)CN3C(=O)C3C(=O)C4(C)CCC3C4(C)C)CC2)c(C)c1` (stereo partly drawn) [Compound 5], the 50% inhibitory concentration (IC50) turned out to be 117 nM at human NK2 receptor and 11 nM in test [1] (setting [2]).

Regarding `CC12CCC(C(C(=O)N3C[C@H](O)C[C@H]3C(=O)N[C@@H](Cc3ccc4ccccc4c3)C(=O)N3CCN(c4ccccn4)CC3)C1=O)C2(C)C` (stereo partly drawn) [Compound 6], the IC50 in test [1] (setting [2]) was 45 nM.

Turning to `CCOC(=O)c1ccccc1N1CCN(C(=O)[C@H](Cc2ccc3ccccc3c2)NC(=O)[C@@H]2C[C@@H](O)CN2C(=O)C2C(=O)C3(C)CCC2C3(C)C)CC1` (stereo partly drawn) [Compound 7], the IC50 is 44 nM at human NK2 receptor and 0.45 nM in test [1] (setting [2]).

Consider `CC12CCC(C(C(=O)N3C[C@H](O)C[C@H]3C(=O)N[C@@H](Cc3ccc4ccccc4c3)C(=O)N3CCN(c4ccccc4Cl)CC3)C1=O)C2(C)C` (stereo partly drawn) [Compound 8], for which the IC50 on human NK2 receptor came out at 18 nM; in test [1] (setting [2]), 3 nM. `CC12CCC(C(C(=O)N3C[C@H](O)C[C@H]3C(=O)N[C@@H](Cc3ccc4ccccc4c3)C(=O)N3CCN(C4CCCCC4)CC3)C1=O)C2(C)C` (stereo partly drawn) [Compound 9]: the IC50 in test [1] (setting [2]) was 17 nM. Same read-out and setting: the figure for `CC12CCC(C(C(=O)N3C[C@H](O)C[C@H]3C(=O)N[C@@H](Cc3ccc4ccccc4c3)C(=O)N3CCN(C(c4ccc(F)cc4)c4ccc(F)cc4)CC3)C1=O)C2(C)C` (stereo partly drawn) [Compound 10] is 200 nM; for `CC12CCC(C(C(=O)N3C[C@H](O)C[C@H]3C(=O)N[C@@H](Cc3ccc4ccccc4c3)C(=O)N3CCN(c4ccccc4[N+](=O)[O-])CC3)C1=O)C2(C)C` (stereo partly drawn) [Compound 11] it is 3.2 nM; for `CC12CCC(C(C(=O)N3C[C@H](O)C[C@H]3C(=O)N[C@@H](Cc3ccc4ccccc4c3)C(=O)N3CCN(c4ccccc4O)CC3)C1=O)C2(C)C` (stereo partly drawn) [Compound 12] it is 5.6 nM. `CC12CCC(C(C(=O)N3C[C@H](O)C[C@H]3C(=O)N[C@@H](Cc3ccc4ccccc4c3)C(=O)N3CCN(c4ccc5ccccc5c4)CC3)C1=O)C2(C)C` (stereo partly drawn) [Compound 13]: the IC50 on human NK2 receptor was 780 nM; in test [1] (setting [2]), 105 nM.

As for `CSc1ccccc1N1CCN(C(=O)[C@H](Cc2ccc3ccccc3c2)NC(=O)[C@@H]2C[C@@H](O)CN2C(=O)C2C(=O)C3(C)CCC2C3(C)C)CC1` (stereo partly drawn) [Compound 14], the IC50 at human NK2 receptor amounted to 240 nM; in test [1] (setting [2]), 3.1 nM. The matching figures for `CCOc1ccccc1N1CCN(C(=O)[C@H](Cc2ccc3ccccc3c2)NC(=O)[C@@H]2C[C@@H](O)CN2C(=O)C2C(=O)C3(C)CCC2C3(C)C)CC1` (stereo partly drawn) [Compound 15]: 38 nM and 3.2 nM. The matching figures for `CC12CCC(C(C(=O)N3C[C@H](O)C[C@H]3C(=O)N[C@@H](Cc3ccc4ccccc4c3)C(=O)N3CCN(c4ccccc4C#N)CC3)C1=O)C2(C)C` (stereo partly drawn) [Compound 16]: 19 nM and 0.7 nM. The matching figures for `COc1ccccc1N1CCN(C(=O)[C@H](Cc2ccc3ccccc3c2)NC(=O)[C@@H]2C[C@@H](O)CN2C(=O)C2C3CC4C(C3=O)C42)CC1` (stereo partly drawn) [Compound 17]: 93 nM and 7 nM. On to `COc1ccccc1N1CCN(C(=O)[C@H](Cc2ccc3ccccc3c2)NC(=O)[C@@H]2C[C@@H](O)CN2C(=O)C2C3CCC(C)(C2O)C3(C)C)CC1` (stereo partly drawn) [Compound 18], for which the IC50 came out at 16 nM on human NK2 receptor and 8 nM in test [1] (setting [2]). With `COc1ccccc1N1CCN(C(=O)[C@H](Cc2ccc3ccccc3c2)NC(=O)[C@@H]2C[C@@H](O)CN2C(=O)C2CC3C=CC2(OC)CC3)CC1` (stereo partly drawn) [Compound 19], the IC50 at human NK2 receptor was 600 nM; in test [1] (setting [2]), 26 nM.

Turning to `COc1ccccc1N1CCN(C(=O)[C@H](Cc2ccc3ccccc3c2)NC(=O)[C@@H]2C[C@@H](O)CN2S(=O)(=O)CC23CCC(CC2=O)C3(C)C)CC1` (stereo partly drawn) [Compound 20], the IC50 at human NK2 receptor is 350 nM; in test [1] (setting [2]), 26 nM. For `COc1ccccc1N1CCN(C(=O)[C@H](Cc2ccc3ccccc3c2)NC(=O)[C@@H]2C[C@@H](O)CN2C(=O)C2CCCCC2O)CC1` (stereo partly drawn) [Compound 21], the IC50 on human NK2 receptor is 130 nM; in test [1] (setting [2]) it was 20 nM. `COc1ccccc1N1CCN(C(=O)[C@H](Cc2ccc3ccccc3c2)NC(=O)[C@@H]2C[C@@H](O)CN2C(=O)C2C(O)C3CCN2CC3)CC1` (stereo partly drawn) [Compound 22]: the IC50 at human NK2 receptor was found to be 1300 nM; in test [1], 25 nM. Consider `COc1ccccc1N1CCN(C(=O)[C@H](Cc2ccc3ccccc3c2)NC(=O)[C@@H]2C[C@@H](O)CN2C(=O)C2CC3CCC2(OC)CC3)CC1` (stereo partly drawn) [Compound 23], for which the IC50 stood at 140 nM on human NK2 receptor and 14 nM in test [1] (setting [2]).

Consider `COc1ccccc1N1CCN(C(=O)[C@H](Cc2ccc3ccccc3c2)NC(=O)[C@@H]2C[C@@H](O)CN2C(=O)C23CCC(C)(C(=O)O2)C3(C)C)CC1` (stereo partly drawn) [Compound 24], for which the values for the 50% inhibitory concentration (IC50) (on human NK2 receptor; in test [1] (setting [2])) were 1240 nM and 3.3 nM, respectively. Taken in the same sequence, the figures for `COc1ccccc1N1CCN(C(=O)[C@H](Cc2ccc3ccccc3c2)NC(=O)[C@@H]2C[C@@H](O)CN2C(=O)C2CCCCC2=O)CC1` (stereo partly drawn) [Compound 25] were 880 nM and 18 nM. Turning to `CC12CCC(C(C(=O)N3C[C@H](O)C[C@H]3C(=O)N[C@@H](Cc3c[nH]c4ccccc34)C(=O)N3CCN(c4ccccc4C#N)CC3)C1=O)C2(C)C` (stereo partly drawn) [Compound 26], the IC50 in test [1] (setting [2]) was 28 nM. Regarding `CN(Cc1ccccc1)C(=O)[C@H](Cc1ccc2ccccc2c1)NC(=O)[C@@H]1C[C@@H](O)CN1C(=O)C1C(=O)C2(C)CCC1C2(C)C` (stereo partly drawn) [Compound 27], the IC50 worked out at 450 nM on human NK2 receptor and 0.5 nM in test [1] (setting [2]). The matching figures for `COc1ccccc1CN1C(=O)C(NC(=O)[C@@H]2C[C@@H](O)CN2C(=O)C2C(=O)C3(C)CCC2C3(C)C)Cc2cc(OC)c(OC)cc21` (stereo partly drawn) [Compound 28]: 1500 nM and 23 nM.

On to `CN(Cc1ccccc1Cl)C(=O)[C@H](Cc1c[nH]c2ccccc12)NC(=O)[C@@H]1C[C@@H](O)CN1C(=O)C1C(=O)C2(C)CCC1C2(C)C` (stereo partly drawn) [Compound 42], for which the IC50 turned out to be 54 nM at human NK2 receptor and 1.2 nM in test [1] (setting [2]). For the molecule `CN(Cc1ccccc1Br)C(=O)[C@H](Cc1c[nH]c2ccccc12)NC(=O)[C@@H]1C[C@@H](O)CN1C(=O)C1C(=O)C2(C)CCC1C2(C)C` (stereo partly drawn) [Compound 43], the IC50 is 21 nM at human NK2 receptor and 1.2 nM in test [1] (setting [2]). Taken in the same sequence, the figures for `CCc1ccccc1CN(C)C(=O)[C@H](Cc1c[nH]c2ccccc12)NC(=O)[C@@H]1C[C@@H](O)CN1C(=O)C1C(=O)C2(C)CCC1C2(C)C` (stereo partly drawn) [Compound 44] were 39 nM and 5.1 nM. The matching figures for `Cc1ccccc1CN(C)C(=O)[C@H](Cc1cn(C)c2ccccc12)NC(=O)[C@@H]1C[C@@H](O)CN1C(=O)C1C(=O)C2(C)CCC1C2(C)C` (stereo partly drawn) [Compound 45]: 59 nM and 4.9 nM. With `Cc1ccccc1CN(C)C(=O)[C@H](Cc1c[nH]c2ccccc12)NC(=O)[C@@H]1CCCN1C(=O)C1C(=O)C2(C)CCC1C2(C)C` (stereo partly drawn) [Compound 47], the IC50 was 57 nM on human NK2 receptor and 3.2 nM in test [1] (setting [2]).
